Reference: US10759788B2, “Pharmaceutical uses of pyridine carboxamide derivatives” (Jiangsu Hengrui Medicine Co., Ltd., priority 2014, dated 2020)
“Also recorded” adds a separate entry of the source.

Key:
[1] = Solubility observed when preparing the drugs for the diuresis experiment; format: physicochemical; settings: preparation of the dosing liquid, observation in words
Text: In this experiment, the solubility of the test compound I was very good. There was no delamination phenomenon. […] After fully grinding, the solubility improved. […] Moreover, the effect was dose-dependent for each dose of the test compound I and the positive control drug.

[2] = test system: SD rats; experiment: Diuretic efficacy of ROMK inhibitors in SD rats; format: in vivo; settings: 0.03 and 0.1 mg/kg i.g. once, after urine collection
Description: The diuretic efficacy of compound 1 and positive control drug of ROMK inhibitor on SD rats was evaluated.
Male SD rats were purchased from SINO-BRITSH SIPPR/BK LAB. ANIMAL LTD., CO (Shanghai, China, Certificate No. 2008001647752, License SCXK (Shanghai) 2013-0016). The rats were 120-130 g, and fed at 5/cage, in a 12/12 hours light/dark cycle regulation, at a constant temperature of 23±1° C., humidity of 50-60%, and free access to water and food. The male SD rats were acclimated to this condition for 7 days before their use in the diuresis experiment.
The experiment was carried out according to the method disclosed in PCT Patent Application Publication WO2010129379A1. After adaptive feeding, the rats were placed in metabolism cages and fasted overnight. The rats were weighed and randomly divided into the following groups: blank control group, compound 1 tested drug 0.03 mg/kg group and 0.1 mg/kg group, and the positive control group 0.03 mg/kg and group 0.1 mg/kg, with 10 rats for each group. Each rat was intragastrically administered each compound (ig, 1 ml/kg). The rats in the blank control group were fed with the corresponding solvent. After intragastric administration, the rats were placed in the normal cage. After 30 min, 25 ml/kg normal saline was given. Rats were put into the metabolic cages, and fasting for food and water began inmediately. The total urine volume in 4 h was collected and measured. The urinary sodium and urinary potassium excretion in 4 h were also measured. The orbital serum was collected after the collection of urine to test the serum sodium and serum potassium concentrations.
The experimental data were expressed as mean±standard deviation (S.D.). The data was statistically compared using the t test of excel.

| Compound | solubility [1] | serum potassium [2] | serum sodium [2] | serum potassium ([2]; listed as Compound I) |
| --- | --- | --- | --- | --- |
| COc1cc(C(=O)NC2CCN(C[C@H](O)c3ccc4c(c3C)COC4=O)CC2)ncc1C#N [Example 1, (R)-5-cyano-N-(1-(2-hydroxy-2-(4-methyl-1-oxo-1,3-dihydroisobenzofuran-5-yl)ethyl)piperidin-4-yl)-4-methoxypicolinamide] | very good | changed a little | changed a little | no effect |
| Cc1cc(C(=O)NC2CCN(C[C@H](O)c3ccc4c(c3C)COC4=O)CC2)ncc1C#N [positive control drug] | poor solubility | changed a little; also recorded: no effect | changed a little | – |
